Measurements: patent US5138035A, “Cyclopeptide derivatives usable as selective inhibitors with respect to proteases with active serine” (Centre National de la Recherche Scientifique, priority 1988, dated 1992)
*1 amine or outer side, *2 acyl side, *3 side chain or, on linkers, in order; H or OH if unused. Where a SMILES comes first, the peptide text is derived from it. [ ]: non-standard residue; d: D form. X3 = O=C(c1cc(N[*:1])ccc1CBr)[*:2]

Key:
Assay type in all cases: biochemical
[1] = target: human t-PA (Homo sapiens, UniProt P00750); assay: Inactivation of human t-PA; conditions: 25° C., 0.05M Tris, 0.038M NaCl, 0.01% (v/v) Tween 80, pH 8.3, method b
Chain of human t-PA (P00750 36-562): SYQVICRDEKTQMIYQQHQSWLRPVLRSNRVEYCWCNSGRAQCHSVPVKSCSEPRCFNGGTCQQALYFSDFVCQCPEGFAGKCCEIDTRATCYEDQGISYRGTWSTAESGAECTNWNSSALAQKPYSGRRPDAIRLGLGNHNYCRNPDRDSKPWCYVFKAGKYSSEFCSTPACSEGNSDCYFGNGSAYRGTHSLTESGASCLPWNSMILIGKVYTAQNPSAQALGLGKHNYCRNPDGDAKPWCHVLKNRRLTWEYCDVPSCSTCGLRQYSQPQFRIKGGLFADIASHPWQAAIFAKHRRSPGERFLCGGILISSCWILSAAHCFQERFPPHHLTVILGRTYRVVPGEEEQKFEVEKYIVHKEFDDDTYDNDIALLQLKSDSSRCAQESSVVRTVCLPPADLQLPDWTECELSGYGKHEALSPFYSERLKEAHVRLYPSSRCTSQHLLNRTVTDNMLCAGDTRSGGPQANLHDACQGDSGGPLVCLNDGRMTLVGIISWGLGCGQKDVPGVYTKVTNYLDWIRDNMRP
Description: The inactivating or inhibiting properties of this derivative with respect to human t-PA are checked at 25° C. in a 0.05M Tris buffer, 0.038M NaCl, 0.01% (v/v) Tween 80 and pH 8.3.

[2] = target: elastase (Sus scrofa, UniProt P00772); assay: Action on elastase (Examples 2 and 4); conditions: species not given
Chain of elastase (P00772 27-266): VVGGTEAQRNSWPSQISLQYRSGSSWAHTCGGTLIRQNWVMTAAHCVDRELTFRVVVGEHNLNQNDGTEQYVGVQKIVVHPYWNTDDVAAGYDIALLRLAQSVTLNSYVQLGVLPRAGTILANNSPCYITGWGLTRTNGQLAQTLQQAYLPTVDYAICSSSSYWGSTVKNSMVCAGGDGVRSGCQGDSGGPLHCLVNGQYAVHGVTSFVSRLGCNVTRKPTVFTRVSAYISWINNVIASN

[3] = target: T1, bovine trypsin (Bos taurus, UniProt P00760); assay: Inactivation of bovine trypsin (Hart and O'Brien / Kitz and Wilson kinetic methods); conditions: 25° C., 0.1M Tris, 0.01M CaCl2, pH 7.2 (Example 14), method a (Hart and O'Brien) or b (Kitz and Wilson)
T1 sequence (P00760 24-246): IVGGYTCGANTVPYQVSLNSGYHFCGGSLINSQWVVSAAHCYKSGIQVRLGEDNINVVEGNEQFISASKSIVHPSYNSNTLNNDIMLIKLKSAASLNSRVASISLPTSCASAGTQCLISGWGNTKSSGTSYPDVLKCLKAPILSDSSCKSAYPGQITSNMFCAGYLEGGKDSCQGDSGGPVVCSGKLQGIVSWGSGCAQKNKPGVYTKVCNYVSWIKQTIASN
Description: (§1) The properties of the cyclopeptide derivative of formula (XVI) are checked and in particular its capacity to inactivate bovine trypsin or human urokinase using the methods of Kitz and Wilson (for trypsin and urokinase) and the method of Hart and O'Brien (for trypsin), 1973, published in Biochemistry, 12, pp. 2940-2945.
(§2) The properties of the cyclopeptide derivative of formula (XXIII) are checked and in particular its capacity to inactivate bovine trypsin or human urokinase using the same methods as in Example 2 and working at 25° C. with the 0.025M sodium phosphate buffer, 0.1M NaCl, 0.05% (v/v) Tween 80 and at pH 7.5 for human urokinase.
(§3) The kinetic measurements were carried out at 25° C. in the following buffers: 0.1M Tris, 0.01M CaCl2, pH 7.2 (bovine trypsin); 0.025M sodium phosphate, 0.1M NaCl, 0.05% (v/v) Tween 80, pH 7.5 (human urokinase); 0.05M Tris, 0.038M NaCl, 0.01% (v/v) Tween 80, pH 8.3 (human t-PA), 0.1M Tris (porcine pancreatic elastase), 0.1M sodium phosphate, 25% (v/v) glycerol (human plasmin). […]

[4] = target: human urokinase (Homo sapiens, UniProt P00749); assay: Inactivation of human urokinase (Kitz and Wilson / Hart and O'Brien kinetic methods); conditions: 25° C., 0.025M sodium phosphate, 0.1M NaCl, 0.05% (v/v) Tween 80, pH 7.5, method a and/or b
Description: as §1, §2, §3

N=C(N)NCCC[C@@H]1NC(=O)CNC(=O)CNC(=O)CNC(=O)CNC(=O)c2cc(ccc2CBr)NC1=O [Compound (XXIII)] (cyclo(GGGGR[X3]))
apparent inactivation constant ki/Ki [1]: 0.3 M⁻¹ s⁻¹
action on elastase [2]: no action
apparent inactivation constant ki/Ki [3]: 150 M⁻¹ s⁻¹
apparent inactivation constant ki/Ki [4]: 165 M⁻¹ s⁻¹
